The values below come from patent publication US7393662B2, “Human EPO mimetic hinge core mimetibodies, compositions, methods and uses” (Centocor, Inc., priority 2004, dated 2008).

Series [1] has as its system EPO dependent UT-7/EPO cell line. In words: in vitro bioactivity (cell proliferation/viability, MTS) assay in EPO dependent UT-7/EPO cells. The format is cell-based, human. Particulars: for activity/potency, fold greater than the EMP-1 peptide: viability 48 hours after treatment, molar basis; for activity compared with rHuEPO: in vitro cell proliferation assay. The procedure:
The activity of EMP-Hinge core mimetibody was first tested in an in vitro bioactivity assay. For this assay, the EPO dependent UT-7/EPO cell line, derived from a patient with acute megakaryoblastic leukemia, was used (Komatsu et al., 1993, Blood, vol. 82 (2), 456-464). These cells undergo programmed cell death 48 to 72 hours after withdraw from media supplemented with rHuEPO. Cells that have been incubated in the absence of rHuEPO for 24 hours can be saved if treated with rHuEPO or an EPO agonist. EMP-Hinge core mimetibody was added to cells starved without rHuEPO and cell viability was determined 48 hours after treatment using the tetrazolium compound MTS (CellTiter 96 Aqueous One Solution, Promega) that is metabolized by living cells to yield a product with an absorbance that can be measured. […] In addition, these same cells were stimulated with EMP-Hinge core mimetibody and tyrosine phosphorylation patterns visualized by running cell lysate through a polyacrylamide gel.

Series [2] has as its system cells that express the EPO receptor. Kind of series: complement lysis of cells that express the EPO receptor (immune effector function). The class given is cell-based. An excerpt:
It has been shown that mutation of two […] (L) residues, L234 & L235, in the IgG1 lower hinge region to alanine (A) will abrogate the ability of the immunoglobulin to mediate complement dependent cytotoxicity (CDC) and antibody dependant cellular cytotoxicity (ADCC) (Hezereh et al., 2001, J. Virol., vol. 75 (24), 12161-68). […] This may be due to the low number of receptors that are found on erythroid progenitor cells.

Series [3] in a line: serum concentration by ELISA / half-life in normal mice. The class given is in vivo. Particulars: serum concentrations by ELISA. Here is the method:
(§1) In vivo studies were done in normal mice to compare the half-life of EMP-Hinge core mimetibody to that of rHuEPO and to compare their effects on erythropoiesis.
The serum concentrations of both rHuEPO and EMP-Hinge core mimetibody were measured by ELISA.
In general terms: An ELISA detects its analyte on a solid surface through an enzyme-linked reagent.

A further series deals with normal mice. In words: in vivo effects on erythropoiesis (hematocrit) in normal mice. Conditions: for duration of response (elevated hematocrit) compared with rHuEPO / maximal hematocrit / maximal response compared with rHuEPO: normal mice, equal activity units / dosed equally.
From the text: A specific, non-limiting, example of this invention is the EMP-hinge core mimetibody construct where V is the first several N-terminal amino acids of a naturally occurring HC or LC antibody, P is a single copy of the bioactive EMP-1 peptide and L is a tandem repeat of either Gly-Ser or Gly-Gly-Gly-Ser flexible linker, H is a hinge core region and CH2 & CH3 are of the IgG1 or IgG4 isotype subclass. It is thought that this structure will constrain the EMP-1 peptide, but allow sufficient flexibility such that the dimerization of the peptides as part of the assembled homodimer is stabilized. […] This construct is efficiently secreted from cells and appears to be properly folded; overcoming problems associated with 1st generation mimetibodies.
as §1

A further series addresses T1, EPO receptor (Homo sapiens, UniProt P19235).
T1 sequence (P19235 25-508): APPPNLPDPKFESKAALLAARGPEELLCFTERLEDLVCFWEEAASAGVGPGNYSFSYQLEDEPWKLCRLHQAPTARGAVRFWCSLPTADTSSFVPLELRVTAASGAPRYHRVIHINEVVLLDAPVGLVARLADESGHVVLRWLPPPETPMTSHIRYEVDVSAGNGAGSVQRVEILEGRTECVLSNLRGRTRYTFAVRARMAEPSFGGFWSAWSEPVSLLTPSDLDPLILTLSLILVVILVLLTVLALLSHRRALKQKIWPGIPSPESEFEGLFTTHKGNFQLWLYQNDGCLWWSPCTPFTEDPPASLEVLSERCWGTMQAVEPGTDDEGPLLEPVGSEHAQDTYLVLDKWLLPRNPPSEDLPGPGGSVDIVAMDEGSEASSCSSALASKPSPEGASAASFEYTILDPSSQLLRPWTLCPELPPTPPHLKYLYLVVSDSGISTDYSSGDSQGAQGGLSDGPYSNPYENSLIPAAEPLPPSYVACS
Particulars: cited from earlier work.

For series [4] the following is noted: in 50% serum; cited from earlier work.
The conditions of series [5]: cited from earlier work.
Setting [6] is: listed as EMP-Hinge core mimetibody.

For “EMP-hinge core mimetibody: V (QIQ)-EMP-1 peptide-GS or GGGS linker-hinge core CPPCP-CH2-CH3 of IgG1 or IgG4; assembled homodimer”, the “potency, fold less than rHuEPO” value in series [1] (UT-7/EPO cells, on a molar basis) amounted to 5 fold. Besides, the “activity/potency, fold greater than the EMP-1 peptide” value is “more than 500 fold” in series [1] (UT-7/EPO cells) and 500 fold in series [1] (UT-7/EPO cells, listed as EMP-Hinge core mimetibody). The figures for the “activity compared with rHuEPO” value in series [1] and in series [1] (setting [6]) were “substantially similar” and “in the range of rHuEPO”, respectively. Also, the “effector function associated effects” value in series [2] is given as “no effector function associated affects have been observed”. In addition, the “complement lysis of cells that express the EPO receptor” value in series [2] (preliminary studies) is “does not mediate complement lysis”. Also, the “approximate half-life relative to rHuEPO” value in series [3] was “at least several times”. For the same substance, in the series on normal mice (in vivo), the “change in hematocrit (in vivo expansion of erythroid progenitors)” value was “significant increases in hematocrit”. Besides, the “duration of response (elevated hematocrit) compared with rHuEPO” value in the series on normal mice was “elevated levels are maintained for a longer period”; with normal mice (setting [6]), “prolonged”. Moreover, the “maximal hematocrit / maximal response compared with rHuEPO” value in the series with normal mice is listed as “significantly higher”; with normal mice (setting [6]) it was “higher maximal response”.
On to GGTYSCHFGPLTWVCKPQGG [EMP-1], for which the “activity, fold less than HuEPO” value with EPO receptor is on record as 10,000 to 100,000 fold. In series [4], the ex-vivo half-life was 8 h.
In the case of “erythropoietin: glycoprotein hormone of 165 amino acids and four carbohydrate chains, primary regulator of erythropoiesis”, the “time at which peak serum levels are achieved” value in series [5] (after subcutaneous administration) was 5 to 24 h. The circulating half-life in series [5] (intravenously administered, patients with CRF) is 3 to 4 h. The “detectable levels of plasma erythropoietin maintained” value in series [5] (within the therapeutic dose range) is recorded as “at least 24 hours”.
